Laboratory results published in US20240165154A1, “METHODS AND AGENTS FOR MODULATING ADOPTIVE IMMUNOTHERAPY” (The Regents of the University of California, priority 2021, published 2024).

Key:
[1] = system: CD8+ T cells from spleens of BL/6J mice; assay: T cell proliferation assay (CELLTRACE Violet) of MSCV-transduced CD8+ T cells in metabolic conditions; assay type: cell-based, mouse; conditions: 48 hr
Description: Spleens from BL/6J mice (Jackson Laboratory #000664; https://www.jax.org/strain/000664) were harvested, minced, resuspended in fluorescence-activated cell sorting (FACS) buffer (phosphate buffered saline (PBS)+2% fetal bovine serum (FBS)+1 mM ethylene diamine tetra-acetic acid (EDTA) (THERMOFISHER SCIENTIFIC™, #15575020)), and strained through a 40-micron nylon mesh filter (Millipore Sigma, CLS431750-50EA). The cellular suspension was then centrifuged at 600× g for 10 minutes before isolating CD8+ T cells using standard protocol from an immunomagnetic separation kit (EASYSEP™ Mouse CD8+ T Cell Isolation Kit, STEMCELL™ Technologies, #19853).
For activation, 5×10^6 stained CD8+ T cells were resuspended in 1 mL of complete T cell medium (RPMI 1640+10% fetal bovine serum (FBS)+1 mM Na Pyruvate+10 mM 4-(2-hydroxyethyl)-1-piperazineethanesulfonic acid (HEPES)+1% penicillin/streptomycin (pen/strep)+0.1% beta-mercaptoethanol) supplemented with 2 ug/mL anti-CD28 clone 37.51 (BIOXCELL™, #BE0015-1) and plated into one well of a 12 well plate coated with 10 micrograms/mL (μg/mL) of anti-CD3e clone 2C11 (BIOXCELL™, #BE0001-1). 24 hours later, plates were lightly spun down at 100× g for 2 minutes, before removing 800 ul of supernatant. 1 mL of T cell media containing concentrated virus was then overlaid, before centrifugation at 800×g for 1 hour at 32C (32° C.). […]

[2] = system: B16 melanoma cell line constitutively expressing GFP; assay: B16 melanoma proliferation/survival assay in HG, LG, LG+C (GFP positivity as proxy for viability); assay type: cell-based; conditions: starvation (low glucose, LG) conditions + cellobiose (+C)
Source text: The protocol for proliferation of the B16 melanoma tumor cell line (FIG. 19) constitutively expressing GFP is identical to the other proliferation assays described above, minus the prior transfection with plasmids.
In order to study the effects of cellobiose on tumors, the high glucose (HG), low glucose (LG), and low glucose+cellobiose (LG+C) in vitro studies of FIGS. 18A-18B were repeated using a B16 melanoma cell line constitutively expressing GFP.

[3] = after intravenous infusion; cited from earlier work

O=C[C@H](O)[C@@H](O)[C@H](O[C@@H]1O[C@H](CO)[C@@H](O)[C@H](O)[C@H]1O)[C@H](O)CO [cellobiose]
T-cell proliferation (CELLTRACE VIOLET) of mCh+ GFP+ cells co-transduced with CDT-1 and GH1-1 ([1]; low glucose + cellobiose (LG+C) vs low glucose): rescued T-cell proliferation
wild-type (WT) T-cell proliferation ([1]; low glucose environment when cellobiose was added): minor increase
B16 melanoma tumor survival (GFP positivity as proxy for cell viability) [2]: did not promote B16 melanoma tumor survival
excretion in the urine [3]: vast majority of cellobiose is excreted in the urine
